Data as given in PubChem BioAssay (NCI).
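Step 1: Grow cells in 96-well plates. Step 2: Expose to compound for 48 hours at 5 concentrations. Step 3: Interpolate endpoints linearly; if unreached, use highest concentration. At the GI50, growth is halved. Definition used: TGI = concentration required for complete inhibition of growth.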

Assays:
Test in all cases: growth of human tumour cells (NCI), 48 h
[1] = tested on: CAKI-1 renal
[2] = tested on: HCC-2998 colon
[3] = tested on: HCT-116 colon
[4] = tested on: HOP-62 NSCLC
[5] = tested on: NCI-H226 lung
[6] = tested on: NCI-H522 lung
[7] = tested on: SK-MEL-5 melanoma
[8] = tested on: SNB-75 CNS
[9] = tested on: TK-10 renal
[10] = tested on: UACC-257 melanoma

Row | SMILES | GI50 [1] [µM] | TGI [1] [µM] | GI50 [2] [µM] | TGI [2] [µM] | GI50 [3] [µM] | TGI [3] [µM] | GI50 [4] [µM] | TGI [4] [µM] | GI50 [5] [µM] | TGI [5] [µM] | GI50 [6] [µM] | TGI [6] [µM] | GI50 [7] [µM] | TGI [7] [µM] | GI50 [8] [µM] | TGI [8] [µM] | GI50 [9] [µM] | TGI [9] [µM] | GI50 [10] [µM] | TGI [10] [µM]
1 | COc1cc2c3c(n(CCCNC(C)(C)CO)c(=O)c2cc1OC)-c1cc2c(cc1C3=O)OCO2 | 0.446 | 23.8 | 1.39 | 7.87 | 0.35 | 1.73 | 0.131 | 5.14 | 0.392 | 8.33 | 0.448 | > 21.8 | 3.5 | 13.3 | 2.58 | 44 | 13 | 38.6 | 19.1 | 49.9
2 | Nc1nc(N)c2cc(Sc3ccc(Cl)cc3)ccc2n1 | 3.25 | 16.1 | 1.08 | 2.43 | 0.327 | 1.39 | 1.49 | 14.9 | 9.71 | 23.4 | 1.35 | 3.87 | 0.762 | 2.06 | 5.89 | 18.7 | 4.91 | 17.2 | 1.41 | 5.72
3 | N#CCC(=O)N/N=C(/C(=O)Nc1ccccc1)C1C(=O)N(c2ccccc2)N=C1N (stereo not given) |  | > 100 |  | > 100 |  | > 100 |  | > 100 |  | > 100 |  | > 100 |  | > 100 |  | > 100 |  | > 100 |  | > 100
4 | COC(=O)C(=O)C(C(=O)C(=O)Nc1ccccc1C(N)=O)c1nc2ccc([N+](=O)[O-])cc2[nH]c1=O (stereo not given) |  | > 100 |  | > 100 |  | > 100 |  | > 100 |  | > 100 |  | > 100 |  | > 100 |  | > 100 |  | > 100 |  | > 100
5 | CC[n+]1c(/C=C/c2ccc(N3CCCC3)cc2)cccc1/C=C/c1ccc(N2CCCC2)cc1 | 0.145 | 1.36 | 0.181 | 0.338 | 0.0838 | 1.28 | 0.414 | 1.46 | 0.146 | 1.49 | 0.239 | 2.08 | 0.116 | 0.274 | 0.16 | 0.88 | 0.359 | 2.38 | 0.19 | 0.773
6 | NS(=O)(=O)c1ccc(N=Nc2c(O)[nH]c3cccc(CCc4ccncc4)c23)cc1 | > 25 | > 25 | > 25 | > 25 | > 25 | > 25 | > 25 | > 25 | > 25 | > 25 | > 25 | > 25 | > 25 | > 25 | > 25 | > 25 | > 25 | > 25 | > 25 | > 25
7 | COc1cc(C)cc(C(=O)OCc2ccccc2)c1C1=C(Cl)C(=O)C(Cl)=CC1=O |  | > 10 |  | > 10 |  | > 10 |  | > 10 |  | > 10 |  | 3.69 |  | > 10 |  | > 10 |  | > 10 |  | > 10
8 | COc1ccc2c(c1)OC(N)=C(C#N)C2c1ccc(F)c(F)c1 (stereo not given) | 0.394 | > 100 | 2.5 | > 44.9 | 0.41 | 25.5 | 0.515 | > 92.2 | 19.2 | > 100 | 0.255 | 9.25 | 0.415 | 29.7 | 0.186 | 4.87 | 14.7 | > 100 | 0.408 | > 100
9 | CCOC(=O)c1cc2c(OC)cc(OC)cc2oc1=O |  | > 100 |  | > 100 |  | > 100 |  | > 100 |  | > 100 |  | > 100 |  | > 100 |  | > 100 |  | > 100 |  | > 100
10 | O=[N+]([O-])c1cccc(C=NC23CC4CC(CC(C4)C2)C3)c1 |  | > 100 |  | > 100 |  | > 100 |  | > 100 |  | > 100 |  | > 100 |  | > 100 |  | > 100 |  | > 100 |  | > 100
11 | Nc1n[nH]c2ccc([C@H]3[C@@H]4C5CCC(C5)[C@@H]4c4c(ccc5[nH]ncc45)N3S(=O)(=O)C3CC3)cc12 (stereo not given in full) | 0.156 | 3.42 | 0.199 | 8.42 | 0.195 | > 9.99 | 0.335 | 20.7 | 0.441 | 10.1 | 0.183 | 2.56 | 0.251 | 1.29 | 0.138 | 2.42 | 3.98 | 36.4 | 8.04 | > 47.5
12 | CSc1nc(SC)c2cnn(-c3ccnc4cc(Cl)ccc34)c2n1 | 22.9 | > 100 | 82.7 | > 100 | 52.9 | > 100 | 29.1 | > 96.1 | 85.4 | > 100 | 55.1 | > 100 | 51.9 | > 100 | > 67.8 | > 100 | 30.9 | > 89.1 | > 49.7 | > 86.4
13 | O=C([CH-]C(=O)c1ccccc1)c1ccccc1.O=C([CH-]C(=O)c1ccccc1)c1ccccc1.[CH2-]CCC.[CH2-]CCC.[Sn+4] | 0.067 | 0.462 | 0.519 | 1.92 | 0.917 | 2.28 | 1.95 | 3.41 | 0.26 | 0.938 | 0.0293 | 0.13 | 0.25 | 1.21 | 1.04 | 2.29 | 0.38 | 1.11 |  | 
14 | Cc1cc(S(=O)(=O)Nc2n[nH]c(-c3ccc(Cl)cc3)c2C#N)c(S)cc1Cl | 30.3 | > 100 | 95.5 | > 100 |  |  | > 100 | > 100 | > 100 | > 100 | > 100 | > 100 | > 100 | > 100 | > 100 | > 100 | > 100 | > 100 | > 100 | > 100
15 | CSc1nc(SC)c2c(C)cn(Cc3ccccc3)c2n1 |  | > 100 |  | > 100 |  | > 100 |  | > 100 |  | > 100 |  | > 100 |  | > 100 |  | > 100 |  | > 100 |  | 
